Tests used:
[1] = molecular target: T1, Prostaglandin G/H synthase 2 (Homo sapiens, UniProt P35354); experiment: Concentration required for 50% inhibition against Prostaglandin G/H synthase 2 from human
T1 sequence (P35354 whole entry): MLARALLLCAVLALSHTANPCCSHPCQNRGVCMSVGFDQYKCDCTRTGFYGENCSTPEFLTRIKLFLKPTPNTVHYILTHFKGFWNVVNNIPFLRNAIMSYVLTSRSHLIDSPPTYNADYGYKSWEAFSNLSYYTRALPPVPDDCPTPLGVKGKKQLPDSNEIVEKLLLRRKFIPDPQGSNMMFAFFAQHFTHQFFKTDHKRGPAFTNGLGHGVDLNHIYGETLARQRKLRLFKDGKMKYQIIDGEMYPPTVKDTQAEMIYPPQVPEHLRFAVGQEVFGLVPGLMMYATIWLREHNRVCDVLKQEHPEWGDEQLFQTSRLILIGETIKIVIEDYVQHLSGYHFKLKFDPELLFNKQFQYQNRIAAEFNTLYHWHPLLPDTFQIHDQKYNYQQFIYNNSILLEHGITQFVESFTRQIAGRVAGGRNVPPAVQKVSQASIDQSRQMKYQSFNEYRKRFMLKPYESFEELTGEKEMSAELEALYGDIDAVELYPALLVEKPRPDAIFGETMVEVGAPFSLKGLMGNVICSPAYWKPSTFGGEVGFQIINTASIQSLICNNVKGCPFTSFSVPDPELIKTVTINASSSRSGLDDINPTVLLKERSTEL

[2] = molecular target: Prostaglandin G/H synthase 1 (Homo sapiens, UniProt P23219); experiment: Concentration required for 50% inhibition against Prostaglandin G/H synthase 1 from human
Sequence of Prostaglandin G/H synthase 1 (P23219 whole entry): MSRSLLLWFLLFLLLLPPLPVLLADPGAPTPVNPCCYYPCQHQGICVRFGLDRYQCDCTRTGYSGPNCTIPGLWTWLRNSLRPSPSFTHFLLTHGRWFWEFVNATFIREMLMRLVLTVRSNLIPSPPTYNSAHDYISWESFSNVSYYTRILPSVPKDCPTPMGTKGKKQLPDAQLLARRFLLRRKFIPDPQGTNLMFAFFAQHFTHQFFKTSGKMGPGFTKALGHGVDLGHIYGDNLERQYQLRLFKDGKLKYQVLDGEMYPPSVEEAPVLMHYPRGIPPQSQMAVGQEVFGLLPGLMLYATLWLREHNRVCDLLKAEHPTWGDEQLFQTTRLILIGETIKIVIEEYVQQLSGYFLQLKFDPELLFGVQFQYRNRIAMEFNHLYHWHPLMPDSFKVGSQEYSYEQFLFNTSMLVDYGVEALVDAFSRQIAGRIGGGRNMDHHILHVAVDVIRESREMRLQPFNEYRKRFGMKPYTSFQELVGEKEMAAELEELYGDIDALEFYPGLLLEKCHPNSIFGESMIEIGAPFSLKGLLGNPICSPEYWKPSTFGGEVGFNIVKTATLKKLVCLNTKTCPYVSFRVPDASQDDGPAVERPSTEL

| Structure (SMILES) | IC50 [1] [nM] | IC50 [2] [nM] |
| --- | --- | --- |
| CC(C(=O)O)c1cc(C(=O)c2ccccc2)ccc1O (stereo not drawn) | 300 | 51 |
| COc1ccc(C(=O)c2ccccc2)cc1C(C)C(=O)O (stereo not drawn) | – | 42 |
